Measured values taken from patent US7579342B2, “Pteridine compounds for the treatment of psoriasis” (AstraZeneca, priority 2000, dated 2009).

Structure (SMILES)	melting point
C[C@H](CO)Nc1nc(SCc2cccc(Cl)c2F)nc2[nH]c(=O)cnc12 [Example 6, 2-[[(3-Chloro-2-fluorophenyl)methyl]thio]-4-[[(1R)-2-hydroxy-1-methylethyl]amino]-7(8H)-pteridinone]	209 to 211 °C
O=c1cnc2c(NCCO)nc(SCc3cccc(Cl)c3F)nc2[nH]1 [Example 7, 2-[[(3-Chloro-2-fluorophenyl)methyl]thio]-4-[(2-hydroxyethyl)amino]-7(8H)-pteridinone]	195 to 196.5 °C
O=c1cnc2c(NC(CO)CO)nc(SCc3cccc(Cl)c3F)nc2[nH]1 [Example 8, 2-[[(3-Chloro-2-fluorophenyl)methyl]thio]-4-[[2-hydroxy-1-(hydroxymethyl)ethyl]amino]-7(8H)-pteridinone]	218.5 to 220.5 °C
COc1ccc(CSc2nc(NC(CO)CO)c3ncc(=O)[nH]c3n2)cc1Cl [Example 11, 2-[[(3-Chloro-4-methoxyphenyl)methyl]thio]-4-[[2-hydroxy-1-(hydroxymethyl)ethyl]amino]-7(8H)-pteridinone]	209 to 211 °C
C[C@H](CO)Nc1nc(SCc2ccno2)nc2[nH]c(=O)cnc12 [Example 22, 4-[[(1R)-2-Hydroxy-1-methylethyl]amino]-2-[(5-isoxazolylmethyl)thio]-7(8H)-pteridinone]	191 to 194 °C
Cc1ccc(CSc2nc(N[C@H](C)CO)c3ncc(=O)[nH]c3n2)o1 [Example 24, 4-[[(1R)-2-Hydroxy-1-methylethyl]amino]-2-[[(5-methyl-2-furanyl)methyl]thio]-7(8H)-pteridinone]	197 to 199 °C
C[C@H](CO)Nc1nc(SCc2ccccc2F)nc2[nH]c(=O)cnc12 [Example 25, 2-[[(2-Fluorophenyl)methyl]thio]-4-[[(1R)-2-hydroxy-1-methylethyl]amino]-7(8H)-pteridinone]	203 to 205 °C
C[C@H](CO)Nc1nc(SCc2cccs2)nc2[nH]c(=O)cnc12 [Example 26, 4-[[(1R)-2-Hydroxy-1-methylethyl]amino]-2-[[(2-thienyl)methyl)thio]-7(8H)-pteridinone]	209 to 212 °C
O=c1cnc2c(NC(CO)CO)nc(SCc3cccs3)nc2[nH]1 [Example 28, 4-[[-2-Hydroxy-1-(hydroxymethyl)ethyl]amino]-2-[(2-thienylmethyl)thio]-7(8H)-pteridinone]	220 to 223 °C
C[C@H](CO)Nc1nc(SCc2cccc(C(F)(F)F)c2F)nc2[nH]c(=O)cnc12 [Example 30, 2-[[(2-Fluoro-3-(trifluoromethyl)phenyl)methyl]thio]-4-[[(1R)-2-hydroxy-1-methylethyl]amino]-7(8H)-pteridinone]	217 to 219 °C
O=c1cnc2c(NC(CO)CO)nc(SCc3cccc(C(F)(F)F)c3F)nc2[nH]1 [Example 31, 2-[[(2-Fluoro-3-(trifluoromethyl)phenyl)methyl]thio]-4-[[2-hydroxy-1-(hydroxymethyl)ethyl]amino]-7(8H)-pteridinone]	244 to 245 °C
O=c1cnc2c(NCCO)nc(SCc3cccc(C(F)(F)F)c3F)nc2[nH]1 [Example 32, 2-[[(2-Fluoro-3-(trifluoromethyl)phenyl)methyl]thio]-4-[(2-hydroxyethyl)amino]-7(8H)-pteridinone]	221 to 222 °C
